# Reference: US8318184B2, “MGLU2 agonists” (Eli Lilly and Company, priority 2009, dated 2012)
# Tests used:
# human mGlu2 receptor = target: T1, human mGlu2 receptor (Homo sapiens, UniProt Q14416); assay: Human mGlu2 Agonist FLIPR Assay; format: cell-based; details: hmGlu2 FLIPR assay, AV-12 cells, relative EC50
# T1 construct: expressed in transfected cells; co-transfected with rat EAAT1 and Galpha15
# Source text: AV-12 cell lines, derived from Syrian Hamster fibroblasts and stably expressing the human mGlu2 receptor and co-transfected with the rat glutamate transporter EAAT 1 (Excitatory Amino Acid Transporter 1) and the Gα15 subunit, are used for these studies. The expression of Gα15 allows Gi-coupled receptors to signal through the phospholipase C pathway, resulting in the ability to measure receptor activation by a fluorometric calcium response assay. […]
# Intracellular calcium levels are monitored before and after the addition of compounds using a Fluorometric Imaging Plate Reader (FLIPR, Molecular Devices). […] Results are analyzed using Prism v4.03 (GraphPad Software). […] After taking an initial 5-sec fluorescent read on the FLIPR instrument, a compound of the present invention is added to the cell plate (50 μL per well). […] The compound effect is measured as maximal minus minimal peak heights in relative fluorescent units (RFUs) corrected for basal fluorescence measured in the absence of glutamate. […] Agonist effects are quantified as percent stimulation induced by compound alone relative to the maximal glutamate response. All data are calculated as relative EC50 values using a four-parameter logistic curve fitting program (ActivityBase v5.3.1.22).
# ICR(CD-1) mice = assay: Reversal of Phencyclidine (PCP)-Induced Hyperlocomotor Activity in Mice; format: in vivo, mouse; details: i.p.
# Source text: This assay for Reversal of Phencyclidine (PCP)-Induced Hyperlocomotor Activity in Mice is run substantially as the Reversal of Phencyclidine (PCP)-Induced Hyperlocomotor Activity in Rats assay provided above, using mice instead of rats and with the changes noted below.
# Motor activity is monitored by placing individual male, ICR(CD-1), (Harlan, Indianapolis, Ind.) mice in transparent, plastic shoe-box cages of the dimensions 45×25×20 cm, with 0.5 cm depth of wood chips as bedding, and plastic lid on top of the cage. Motor monitors (Kinder Scientific) consist of a rectangular rack of 12 photobeams arranged in an 8×4 formation, (or a high density grouping of 22 in a 15×7 pattern) at a height of 2.5 cm. The shoe box cage is placed inside of these racks, with the racks on a 3 foot high tabletop in an isolated room. A compound of the present invention is dosed (intraperitoneal route, non-prodrug) usually within a range of 0.3-30 mg/kg; though higher doses may be used, 30 minutes prior to a 7.5 mg/kg challenge dose of phencyclidine (PCP). On the test day, mice are placed in the test cage and allowed to acclimate for 45 minutes prior to PCP challenge; mice are monitored for an additional 60 minutes following PCP administration.
# Power analyses have determined that 7-8 mice per group are needed to have appropriate statistical power for detecting treatment differences (power=0.8).
# [1] = both, human, pH 7.4
# Procedure: Liver S9 fractions are obtained from Xenotech LLC (Lenexa, Mo.). The lot is from a pool of two donors. The liver S9 fraction is prepared and diluted using a homogenization buffer consisting of 50 mM Tris, pH 7.4 at 4° C. and 150 mM potassium chloride without EDTA. Prodrug compounds are incubated in the liver homogenate for 2 hours at 37° C., after which the concentration of compound is determined by LC/MS/MS. Hydrolysis of Clopidogrel to Clopidogrel Carboxylic Acid is utilized as an assay positive control.
# A mobile phase gradient is utilized starting mobile phase ratio A/B of 99.9/0.1 and finishing at 1/99.
# T1 sequence (Q14416 19-872): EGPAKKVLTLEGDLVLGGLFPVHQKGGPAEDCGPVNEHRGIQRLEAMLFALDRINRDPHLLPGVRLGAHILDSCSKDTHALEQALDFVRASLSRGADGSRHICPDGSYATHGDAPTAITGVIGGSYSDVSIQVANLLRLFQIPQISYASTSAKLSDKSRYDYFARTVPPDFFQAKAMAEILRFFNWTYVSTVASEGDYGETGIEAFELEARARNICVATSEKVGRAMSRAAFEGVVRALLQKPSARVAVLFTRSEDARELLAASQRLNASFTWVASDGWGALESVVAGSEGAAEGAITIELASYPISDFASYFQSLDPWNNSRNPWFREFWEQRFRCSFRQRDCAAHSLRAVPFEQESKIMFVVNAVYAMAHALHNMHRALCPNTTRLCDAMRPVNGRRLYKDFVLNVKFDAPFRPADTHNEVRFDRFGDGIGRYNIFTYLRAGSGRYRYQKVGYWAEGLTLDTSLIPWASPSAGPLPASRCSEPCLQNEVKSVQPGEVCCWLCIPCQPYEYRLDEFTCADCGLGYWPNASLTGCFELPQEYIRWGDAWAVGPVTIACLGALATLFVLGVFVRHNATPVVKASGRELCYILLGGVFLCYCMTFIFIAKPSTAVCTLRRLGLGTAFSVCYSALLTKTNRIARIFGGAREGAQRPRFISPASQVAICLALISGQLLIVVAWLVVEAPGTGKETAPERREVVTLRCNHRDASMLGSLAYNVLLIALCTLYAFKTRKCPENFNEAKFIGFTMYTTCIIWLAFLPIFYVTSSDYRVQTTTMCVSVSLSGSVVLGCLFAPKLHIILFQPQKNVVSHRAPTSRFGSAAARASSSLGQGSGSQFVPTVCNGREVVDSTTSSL
EC50 (human mGlu2 receptor) [µM],Hydrolysis of Clopidogrel to Clopidogrel Carboxylic Acid [1] [%],SMILES,"inhibition of PCP evoked ambulations (ICR(CD-1) mice; multiple dose experiment, 10 mg/kg dose) [%]","inhibition of PCP evoked ambulations (ICR(CD-1) mice; multiple dose experiment, 100 mg/kg dose) [%]",inhibition of PCP evoked ambulations (ICR(CD-1) mice; single dose experiment of 10 mg/kg) [%]
> 25,,"N[C@]1(C(=O)O)C[C@H](Sc2ccccc2)[C@@H]2[C@@H](C(=O)O)[C@@H]21 (racemic) [1SR,2RS,4SR,5SR,6SR-2-amino-4-(phenylthio)-bicyclo[3.1.0]hexane-2,6-dicarboxylic acid]",5±10,19±8,18±11
,73.0,COC(=O)[C@H](c1ccccc1Cl)N1CCc2sccc2C1 [Clopidogrel],,,
